# Patent publication US7396837B2, “Antitumoral analogs of lamellarins” (Pharma Mar, S.A.U., priority 2002, dated 2008)
# Key:
# [1] = test system: K-562; test: SRB colorimetric cell growth inhibition assay, K-562; type: cell-based; conditions: K-562
# Summary of the method: (§1)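 Continuous-exposure format, human tumour lines. SRB colour reaction quantifies growth/viability. Triplicate wells → mean ± SD → GI, TGI, LC.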
# [2] = test system: A-549; test: SRB colorimetric cell growth inhibition assay, A-549; type: cell-based; conditions: A-549
# Summary of the method: as §1
# [3] = test system: SK-MEL-28; test: SRB colorimetric cell growth inhibition assay, SK-MEL-28; type: cell-based; conditions: MEL-28
# Summary of the method: as §1
# [4] = test system: HT-29; test: SRB colorimetric cell growth inhibition assay, HT-29; type: cell-based; conditions: HT-29
# Summary of the method: as §1
# [5] = test system: LoVo; test: SRB colorimetric cell growth inhibition assay, LoVo; type: cell-based; conditions: LOVO
# Summary of the method: as §1
# [6] = test system: LoVo-Dox; test: SRB colorimetric cell growth inhibition assay, LoVo-Dox (MDR); type: cell-based; conditions: LOVO-DOX
# Summary of the method: as §1
# [7] = test system: DU-145; test: SRB colorimetric cell growth inhibition assay, DU-145; type: cell-based; conditions: DU-145
# Summary of the method: as §1
# [8] = test system: LNCaP; test: SRB colorimetric cell growth inhibition assay, LNCaP; type: cell-based; conditions: LN-caP
# Summary of the method: as §1
# [9] = test system: SK-BR-3; test: SRB colorimetric cell growth inhibition assay, SK-BR-3; type: cell-based; conditions: SK-BR-3
# Summary of the method: as §1
# [10] = test system: IGROV; test: SRB colorimetric cell growth inhibition assay, IGROV; type: cell-based; conditions: IGROV
# Summary of the method: as §1
# [11] = test system: IGROV-ET; test: SRB colorimetric cell growth inhibition assay, IGROV-ET (ET-743 resistant); type: cell-based; conditions: IGROV-ET
# Summary of the method: as §1
# [12] = test system: PANC-1; test: SRB colorimetric cell growth inhibition assay, PANC-1; type: cell-based; conditions: PANC-1
# Summary of the method: as §1
# [13] = test system: SKOV-3; test: SRB colorimetric cell growth inhibition assay, SKOV-3; type: cell-based; conditions: SKOV-3
# Summary of the method: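 SRB colorimetric readout of cell growth/viability in 96-well format. Means ± SD from triplicate wells; GI (growth inhibition), TGI (total growth inhibition, cytostatic) and LC (cell killing, cytotoxic) parameters derived.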
# [14] = test system: H-MEC-1; test: SRB colorimetric cell growth inhibition assay, H-MEC-1; type: cell-based; conditions: H-MEC-1
# Text: Inhibition of Cell Growth by Colorimetric Assay.
# A colorimetric type of assay, using sulforhodamine B (SRB) reaction has been adapted for a quantitative measurement of cell growth and viability (following the technique described by P. A. Skehan, et al., J. Natl. Cancer Inst. 1990, 82, 1107-1112).
# This form of assay employs 96 well cell culture microplates of 9 mm diameter (T. Mosmann et al., J. of Immunological Methods 1983, 65, 55-63; G. T. Faircloth et al., J. of Tissue and Culture Methods 1988, 11, 201-205).
# Most of the cell lines are obtained from American Type Culture Collection (ATCC) derived from different human cancer types.
# The values for mean +/− SD of data from triplicate wells are calculated. Some parameters for cellular responses can be calculated: GI=growth inhibition, TGI=total growth inhibition (cytostatic effect) and LC=cell killing (cytotoxic effect).
# [15] = molecular target: T1, human topoisomerase I (Homo sapiens, UniProt P11387); test: Topoisomerase I DNA relaxation assay (supercoiled plasmid DNA); type: biochemical; conditions: supercoiled plasmid DNA, each compound tested at 1 μM, agarose gel with ethidium bromide
# T1 sequence (P11387 1-765): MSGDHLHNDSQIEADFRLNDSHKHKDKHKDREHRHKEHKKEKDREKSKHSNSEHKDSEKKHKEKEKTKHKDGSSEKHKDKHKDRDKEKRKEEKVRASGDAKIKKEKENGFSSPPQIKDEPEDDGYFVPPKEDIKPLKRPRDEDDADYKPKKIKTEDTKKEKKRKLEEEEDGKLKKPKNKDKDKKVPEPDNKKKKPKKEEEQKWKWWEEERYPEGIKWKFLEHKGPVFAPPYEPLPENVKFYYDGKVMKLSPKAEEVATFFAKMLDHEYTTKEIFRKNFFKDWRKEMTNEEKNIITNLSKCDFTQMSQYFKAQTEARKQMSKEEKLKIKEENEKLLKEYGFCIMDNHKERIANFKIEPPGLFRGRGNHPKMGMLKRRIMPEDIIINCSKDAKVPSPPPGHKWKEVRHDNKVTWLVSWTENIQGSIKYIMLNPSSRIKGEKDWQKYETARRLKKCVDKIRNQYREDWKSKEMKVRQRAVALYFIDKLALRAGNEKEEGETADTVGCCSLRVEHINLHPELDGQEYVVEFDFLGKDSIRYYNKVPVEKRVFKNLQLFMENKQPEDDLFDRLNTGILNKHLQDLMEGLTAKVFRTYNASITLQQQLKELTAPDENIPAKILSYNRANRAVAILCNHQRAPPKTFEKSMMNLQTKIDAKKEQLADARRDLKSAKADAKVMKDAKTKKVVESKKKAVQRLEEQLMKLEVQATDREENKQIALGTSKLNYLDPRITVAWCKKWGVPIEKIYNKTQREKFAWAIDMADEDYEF
# Method: Two assays, based on DNA relaxation and DNA cleavage (Bailly, C. DNA relaxation and cleavage assays to study topoisomerase I inhibitors. Methods Enzymol. 2001, 340, 610-623) were used evaluate the effects of the lamellarin analogs on the catalytic activity of human topoisomerase I.
# In the first assay, a supercoiled plasmid DNA was relaxed with topoisomerase I in the absence or presence of the test compounds, each tested at 1 μM. DNA relaxation products were then resolved by gel electrophoresis on agarose gels containing ethidium bromide to stain the DNA.
# [16] = total growth inhibition (cytostatic effect)
# [17] = TGI=total growth inhibition (cytostatic effect)
smiles,measurement,setting,value
COc1cc(-c2c3n(c4c(=O)oc5cc(OC(C)=O)c(OC)cc5c24)CCc2cc(OC)c(OC(C)=O)cc2-3)ccc1OC(C)=O [Compound 94],GI50,"[1]; GI=growth inhibition, read-out: GI50 K-562",0.526 µM
same,CC50,"[1]; cell killing (cytotoxic effect), read-out: LC50 K-562",4.32 µM
same,TGI K-562,[1]; [16],1.82E−06 Molar
same,GI50,"[2]; GI=growth inhibition, read-out: GI50 A-549",7.19 µM
same,CC50,"[2]; cell killing (cytotoxic effect), read-out: LC50 A-549",15.9 µM
same,TGI A-549,[2]; [16],1.59E−05 Molar
same,GI50,"[3]; GI=growth inhibition, read-out: GI50 MEL-28",2.45 µM
same,CC50,"[3]; LC=cell killing (cytotoxic effect), read-out: LC50 MEL-28",15.9 µM
same,TGI MEL-28,[3]; [17],7.31E−06 Molar
same,GI50,"[4]; GI=growth inhibition, read-out: GI50 HT-29",15.5 µM
same,CC50,"[4]; cell killing (cytotoxic effect), read-out: LC50 HT-29",15.9 µM
same,TGI HT-29,[4]; [16],1.59E−05 Molar
same,GI50,"[5]; GI=growth inhibition, read-out: GI50 LOVO",5.7 µM
same,CC50,"[5]; cell killing (cytotoxic effect), read-out: LC50 LOVO",15.9 µM
same,TGI LOVO,[5]; [16],1.59E−05 Molar
same,GI50,"[6]; GI=growth inhibition, read-out: GI50 LOVO-DOX",2.84 µM
same,CC50,"[6]; cell killing (cytotoxic effect), read-out: LC50 LOVO-DOX",15.9 µM
same,TGI LOVO-DOX,[6]; [16],8.25E−06 Molar
same,GI50,"[7]; GI=growth inhibition, read-out: GI50 DU-145",13.1 µM
same,CC50,"[7]; LC=cell killing (cytotoxic effect), read-out: LC50 DU-145",15.9 µM
same,TGI DU-145,[7]; [17],1.59E−05 Molar
same,GI50,"[8]; GI=growth inhibition, read-out: GI50 LN-caP",0.673 µM
same,CC50,"[8]; LC=cell killing (cytotoxic effect), read-out: LC50 LN-caP",12.5 µM
same,TGI LN-caP,[8]; [17],2.87E−06 Molar
same,GI50,"[9]; GI=growth inhibition, read-out: GI50 SK-BR-3",3.35 µM
same,CC50,"[9]; LC=cell killing (cytotoxic effect), read-out: LC50 SK-BR-3",15.9 µM
same,TGI SK-BR-3,[9]; [17],1.24E−05 Molar
same,GI50,"[10]; GI=growth inhibition, read-out: GI50 IGROV",1.83 µM
same,CC50,"[10]; LC=cell killing (cytotoxic effect), read-out: LC50 IGROV",15.9 µM
same,TGI IGROV,[10]; [17],5.90E−06 Molar
same,GI50,"[11]; GI=growth inhibition, read-out: GI50 IGROV-ET",1.59 µM
same,CC50,"[11]; LC=cell killing (cytotoxic effect), read-out: LC50 IGROV-ET",15.9 µM
same,TGI IGROV-ET,[11]; [17],1.59E−05 Molar
same,GI50,"[12]; GI=growth inhibition, read-out: GI50 PANC-1",2.12 µM
same,CC50,"[12]; cell killing (cytotoxic effect), read-out: LC50 PANC-1",15.9 µM
same,TGI PANC-1,[12]; [16],1.59E−05 Molar
same,GI50,"[13]; GI=growth inhibition, read-out: GI50 SKOV-3",8.48 µM
same,CC50,"[13]; LC=cell killing (cytotoxic effect), read-out: LC50 SKOV-3",15.9 µM
same,TGI SKOV-3,[13]; [17],1.59E−05 Molar
same,GI50,[14]; GI=growth inhibition,15.9 µM
same,CC50,"[14]; LC=cell killing (cytotoxic effect), read-out: LC50 H-MEC-1",15.9 µM
same,TGI H-MEC-1,[14]; [17],1.59E−05 Molar
COc1cc(-c2c3n(c4c(=O)oc5cc(OC(C)=O)c(OC)cc5c24)CCc2cc(OC(C)=O)c(OC)cc2-3)ccc1OC(C)=O [Compound 108],stimulation of DNA cleavage by topoisomerase I / inhibition of topoisomerase I (nicked DNA band) in DNA relaxation assay,[15],inactive
COc1cc(-c2c3c4cc(OC)c(OC(=O)[C@H](NC(=O)OC(C)(C)C)C(C)C)cc4oc(=O)c3n3ccc4cc(OC(=O)[C@H](NC(=O)OC(C)(C)C)C(C)C)c(OC)cc4c23)ccc1OC(=O)[C@H](NC(=O)OC(C)(C)C)C(C)C [Compound 122],stimulation of DNA cleavage by topoisomerase I / inhibition of topoisomerase I (nicked DNA band) in DNA relaxation assay,[15],No effect
